Laboratory results: patent US10681909B2, “Herbicidal triazoles” (FMC Corporation, priority 2014, dated 2020)

Columns and labels:
[1] = test system: field poppy; assay: Test D preemergence; type: in vivo, Papaver rhoeas; conditions: for Plant response rating (0 to 100), Field Poppy: 16 g ai/ha, 0 is no effect, 100 is complete control; for Plant response rating: Field Poppy: scale 0 to 100
Description: (§1) Seeds of plant species selected from bluegrass (annual bluegrass, Poa annua), blackgrass (Alopecurus myosuroides), canarygrass (Phalaris minor), chickweed (common chickweed, Stellaria media), galium (catchweed bedstraw, Galium aparine), bromegrass, down (downy bromegrass, Bromus tectorum), Russian thistle (Salsola kali), field poppy (Papaver rhoeas), field violet (Viola arvensis), foxtail, green (green foxtail, Setaria viridis), deadnettle (henbit deadnettle, Lamium amplexicaule), ryegrass, Ital. (Italian ryegrass, Lolium multiflorum), kochia (Kochia scoparia), lambsquarters (Chenopodium album), oilseed rape (Brassica napus), pigweed (Amaranthus retroflexus), chamomile (scentless chamomile, Matricaria inodora), speedwell (bird's-eye speedwell, Veronica persica), barley, spring (spring barley, Hordeum vulgare), wheat, spring (spring wheat, Triticum aestivum), buckwheat, wild (wild buckwheat, Polygonum convolvulus), wild mustard (Sinapis arvensis), oat, wild (wild oat, Avena fatua), radish, wild (wild radish, Raphanus raphanistrum), […]), barley, winter (winter barley, Hordeum vulgare), and wheat, winter (winter wheat, Triticum aestivum) were planted into a silt loam soil and treated preemergence with test chemicals formulated in a non-phytotoxic solvent mixture which included a surfactant. At the same time, these species were planted in pots containing Sunshine Redi-Earth® planting medium comprising spaghnum peat moss, vermiculite, starter nutrients and dolomitic limestone and treated with postemergence applications of the test chemicals formulated in the same manner. Plants ranged in height from 2 to 18 cm (1- to 4-leaf stage). Treated plants and controls were maintained in a controlled growth environment for 14 to 21 d after which time all species were compared to controls and visually evaluated. […] A dash (-) response means no test result.

[2] = test system: ryegrass, Ital.; assay: Test D preemergence; type: in vivo, Lolium multiflorum; conditions: for Plant response rating (0 to 100), Ryegrass, Ital.: 16 g ai/ha, 0 is no effect, 100 is complete control; for Plant response rating: Ryegrass, Ital.: scale 0 to 100
Description: as §1

[3] = test system: blackgrass; assay: Test A postemergence; type: in vivo, Alopecurus myosuroides; conditions: 0 to 100 scale (0 no effect, 100 complete control), approx. 10 d
How it was run: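 Ratings reflect visual injury after ~10 d in greenhouse, 0 = no effect, 100 = complete control. Postemergence treatment was applied to one- to two-leaf seedlings; preemergence treatment was a directed soil spray at planting.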

[4] = test system: crabgrass, large; assay: Test C preemergence; type: in vivo, Digitaria sanguinalis; conditions: for Plant response rating (scale of 0 to 100 where 0 is no effect and 100 is complete control): Crabgrass, Large, preemergence; for Crabgrass, Large plant response rating (0 to 100): Preemergence, visual rating after 13 to 15 d
Description: (§2) Seeds of plant species selected from blackgrass (Alopecurus myosuroides), ryegrass, Italian (Italian ryegrass, Lolium multiflorum), wheat (winter wheat, Triticum aestivum), galium (catchweed bedstraw, Galium aparine), corn (Zea mays), crabgrass, large (large crabgrass, Digitaria sanguinalis), foxtail, giant, (giant foxtail, Setaria faberii), johnsongrass (Sorghum halepense), lambsquarters (Chenopodium album), morningglory (Ipomoea coccinea), nutsedge, yellow (yellow nutsedge, Cyperus esculentus), pigweed (Amaranthus retroflexus), ragweed (common ragweed, Ambrosia elatior), soybean (Glycine max), barnyardgrass (Echinochloa crus-galli), oilseed rape (Brassica napus), waterhemp (common waterhemp, Amaranthus rudis), and velvetleaf (Abutilon theophrasti) were planted into a blend of loam soil and sand and treated preemergence with test chemicals formulated in a non-phytotoxic solvent mixture which included a surfactant. At the same time, plants selected from these crop and weed species and also chickweed (common chickweed, Stellaria media), oat, wild (wild oat, Avena fatua), and kochia (Kochia scoparia), were planted in pots containing Sunshine Redi-Earth® planting medium comprising spaghnum peat moss, vermiculite, starter nutrients and dolomitic limestone and treated with postemergence applications of test chemicals formulated in the same manner. Plants ranged in height from 2 to 18 cm (1- to 4-leaf stage) for postemergence treatments. […] A dash (-) response means no test result.

[5] = test system: wheat (winter wheat); assay: Test C preemergence; type: in vivo, Triticum aestivum; conditions: for Wheat plant response rating (0 to 100): Preemergence, visual rating after 13 to 15 d; for Plant response rating (scale of 0 to 100 where 0 is no effect and 100 is complete control): Wheat, preemergence, 250 g ai/ha
Description: as §2

[6] = test system: oilseed rape; assay: Test D preemergence; type: in vivo, Brassica napus; conditions: for Plant response rating (0 to 100), Oilseed Rape: 16 g ai/ha, 0 is no effect, 100 is complete control; for Plant response rating: Oilseed Rape: scale 0 to 100
Description: as §1

[7] = test system: lambsquarters; assay: Test D preemergence; type: in vivo, Chenopodium album; conditions: for Plant response rating (0 to 100), Lambsquarters: 16 g ai/ha, 0 is no effect, 100 is complete control; for Plant response rating: Lambsquarters: scale 0 to 100
Description: as §1

[8] = test system: Russian thistle; assay: Test D postemergence; type: in vivo, Salsola kali; conditions: scale 0 to 100
Description: as §1

[9] = test system: foxtail, green; assay: Test D preemergence; type: in vivo, Setaria viridis; conditions: for Plant response rating (0 to 100), Foxtail, Green: 16 g ai/ha, 0 is no effect, 100 is complete control; for Plant response rating: Foxtail, Green: scale 0 to 100
Description: as §1

Row | Compound | Plant response rating (0 to 100), Field Poppy [1] | Plant response rating: Field Poppy ([1]; 62 g ai/ha) | Plant response rating: Field Poppy ([1]; 125 g ai/ha) | Plant response rating (0 to 100), Ryegrass, Ital. [2] | Plant response rating: Ryegrass, Ital. ([2]; 62 g ai/ha) | Plant response rating: Ryegrass, Ital. ([2]; 125 g ai/ha) | Plant response rating, Blackgrass ([3]; 125 g ai/ha) | Plant response rating (0 to 100), Oilseed Rape [6] | Plant response rating: Oilseed Rape ([6]; 62 g ai/ha) | Plant response rating: Oilseed Rape ([6]; 125 g ai/ha) | Plant response rating (0 to 100), Lambsquarters [7] | Plant response rating: Lambsquarters ([7]; 62 g ai/ha) | Plant response rating: Lambsquarters ([7]; 125 g ai/ha) | Plant response rating: Russian Thistle ([8]; 16 g ai/ha) | Plant response rating: Russian Thistle ([8]; 31 g ai/ha) | Plant response rating: Russian Thistle ([8]; 62 g ai/ha) | Plant response rating: Russian Thistle ([8]; 125 g ai/ha) | Plant response rating (0 to 100), Foxtail, Green [9] | Plant response rating: Foxtail, Green ([9]; 62 g ai/ha) | Plant response rating: Foxtail, Green ([9]; 125 g ai/ha) | other results
1 | CCOc1nc(-c2ccc(C(F)(F)F)cc2)nn1Cc1ccnc(C(F)(F)F)c1 [Compound 35, 4-[[5-ethoxy-3-[4-(trifluoromethyl)phenyl]-1H-1,2,4-triazole-1-yl]methyl]-2-(trifluoromethyl)pyridine] | 100 | 100 | 100 | 35 | 65 | 70 | 50 | 25 | 40 | 100 | 85 | 95 | 100 | 70 | 75 | 80 | 85 | 70 | 100 | 100 | Plant response rating, Blackgrass ([3]; 31 g ai/ha): 30; Plant response rating (scale of 0 to 100 where 0 is no effect and 100 is complete control) ([4]; 125 g ai/ha): 100; Plant response rating (scale of 0 to 100 where 0 is no effect and 100 is complete control) ([4]; 250 g ai/ha): 100; Crabgrass, Large plant response rating (0 to 100) ([4]; 31 g ai/ha): 100; Crabgrass, Large plant response rating (0 to 100) ([4]; 62 g ai/ha): 100; Wheat plant response rating (0 to 100) ([5]; 31 g ai/ha): 5; Wheat plant response rating (0 to 100) ([5]; 62 g ai/ha): 5; Plant response rating (scale of 0 to 100 where 0 is no effect and 100 is complete control) [5]: 35
2 | CCOc1nc(-c2ccccc2)nn1Cc1ccnc(C(F)(F)F)c1 [Compound 27] | 95 | 100 | 100 | 25 | 65 | 75 | 70 | 5 | 60 | 80 | 85 | 95 | 95 | 75 | 80 | 85 | 85 | 95 | 100 | 100 | Plant response rating, Blackgrass ([3]; 500 g ai/ha): 80; Plant response rating (scale of 0 to 100 where 0 is no effect and 100 is complete control) ([4]; 125 g ai/ha): 100; Plant response rating (scale of 0 to 100 where 0 is no effect and 100 is complete control) ([4]; 250 g ai/ha): 100; Crabgrass, Large plant response rating (0 to 100) ([4]; 31 g ai/ha): 100; Crabgrass, Large plant response rating (0 to 100) ([4]; 62 g ai/ha): 100; Wheat plant response rating (0 to 100) ([5]; 31 g ai/ha): 20; Wheat plant response rating (0 to 100) ([5]; 62 g ai/ha): 25; Plant response rating (scale of 0 to 100 where 0 is no effect and 100 is complete control) [5]: 60
3 | FC(F)(F)COc1nc(-c2ccc(Cl)cc2)nn1Cc1ccnc(C(F)(F)F)c1 [Compound 31] | 95 | 100 | 100 | 40 | 50 | 100 | 50 | 10 | 35 | 35 | 75 | 85 | 90 | 70 | 80 | 85 | 90 | 95 | 100 | 100 | Plant response rating, Blackgrass ([3]; 500 g ai/ha): 80; Plant response rating (scale of 0 to 100 where 0 is no effect and 100 is complete control) ([4]; 125 g ai/ha): 100; Plant response rating (scale of 0 to 100 where 0 is no effect and 100 is complete control) ([4]; 250 g ai/ha): 100; Crabgrass, Large plant response rating (0 to 100) ([4]; 31 g ai/ha): 98; Crabgrass, Large plant response rating (0 to 100) ([4]; 62 g ai/ha): 98; Wheat plant response rating (0 to 100) ([5]; 31 g ai/ha): 0; Wheat plant response rating (0 to 100) ([5]; 62 g ai/ha): 5; Plant response rating (scale of 0 to 100 where 0 is no effect and 100 is complete control) [5]: 35
4 | COc1nc(-c2ccc(Cl)cc2)nn1Cc1ccnc(C(F)(F)F)c1 [Compound 28] | 70 | 100 | 100 | 25 | 25 | 55 | 10 | 10 | 15 | 15 | 75 | 85 | 95 | 70 | 75 | 85 | 85 | 80 | 85 | 100 | Plant response rating, Blackgrass ([3]; 500 g ai/ha): 40
